Several values for one entry are separate records, joined by “and”; a condition that tells them apart may be missing. Equal entries are not always repeated. Activity calls are given as the source filed them.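 Rule for the calls: active = fitted half-maximal concentration for change in GFP expression of 33 µM or less; inactive = the rest.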

This experiment can be described thus: concentration-dependent AGP1-GFP change, TOR pathway – cell-based, flow cytometry, S. cerevisiae, MLPCN hits, dose response (AID 2743). As to conditions: S. cerevisiae AGP1-GFP strain, flow cytometry GFP, 3 h; at 33 µM (top of the series).
Take `COc1cccc(C(=O)Nc2nnc(-c3ccc(Cl)cc3)o2)c1`: the GFP fluorescence (kMESF) is 34.6 kMESF (inactive). `Cc1ccc(N=c2ssnc2Cl)cc1`: the GFP fluorescence (kMESF) was 43.2 kMESF (inactive).

On to `Cc1ccc(S(=O)(=O)N2CCCC2C(=O)NCc2ccncc2)cc1` (centres undefined), for which the GFP fluorescence (kMESF) was 32.1 kMESF (inactive). To `Cc1ccc(/C(N)=N/OC(=O)c2ccc(F)cc2)cc1` belongs 23.1 kMESF (inactive). The same measure for `CC1=NNC(=O)/C1=C\c1cn(-c2ccccc2)nc1-c1cccs1`: 37.3 kMESF (inactive). To `CN(Cc1cnc2nc(N)nc(N)c2n1)c1ccc(C(=O)N[C@@H](CCC(=O)O)C(=O)O)cc1` belongs 45.5 kMESF (inactive) and 51.9 kMESF (inactive); to `CC(=O)n1cc(C(C[N+](=O)[O-])SCCN)c2ccccc21` (centres undefined), 28.8 kMESF (inactive); to `CCC1(c2ccccc2)ON(c2c(Br)cccc2Br)C1=O` (centres undefined), 28.9 kMESF (inactive). As for `O=C1Nc2ccc(Br)cc2/C1=C/C(=O)c1ccc2c(c1)OCO2`, the GFP fluorescence (kMESF) was 46.7 kMESF (inactive). To `ClC(Cl)(c1nnnn1-c1ccccc1)c1nnnn1-c1ccccc1` belongs 35.1 kMESF (inactive). To `CCN1/C(=C/C(C)=C/c2sc3ccccc3[n+]2CC)Sc2ccccc21` belongs 47.5 kMESF (inactive); to `O=c1cc(-c2ccccc2)cc(-c2ccccc2)n1O`, 22.5 kMESF (inactive). As for `O=[N+]([O-])c1cc(Cl)cc(/C=N\Nc2ccccn2)c1O`, the GFP fluorescence (kMESF) was 30.3 kMESF (inactive).

As for `O=C1C(Cl)=C(NCCc2ccccc2)C(=O)N1CCc1ccccc1`, the GFP fluorescence (kMESF) was 43.3 kMESF (inactive). As to `CN1CCN(C(c2ccc(C(F)(F)F)cc2)c2ccc3cccnc3c2O)CC1` (centres undefined), the GFP fluorescence (kMESF) is 34 kMESF (inactive).

On to `Clc1ccc(N=c2ssnc2Cl)cc1`, for which the GFP fluorescence (kMESF) is 39.8 kMESF (inactive). To `N=C1/C(=C\c2coc3ccccc3c2=O)C(=O)N=C2SC(c3ccncc3)=NN12` belongs 44.7 kMESF (inactive); to `Nc1nc(N)c2nc(CNc3ccc(C(=O)NC(CCC(=O)O)C(=O)O)cc3)cnc2n1` (centres undefined), 46 kMESF (inactive). The same measure for `Cc1ccc(-c2nn(C(C)(C)C)c3ncnc(N)c23)cc1`: 40.2 kMESF (inactive); for `O=C1NC(=O)N(c2ccccc2)C(=O)/C1=C/c1ccc(Sc2ccccc2)o1`: 35.9 kMESF (inactive). The same measure for `CC(C)Oc1ccc(C(=O)/C=C2/C(=O)Nc3ccccc32)cc1`: 46.3 kMESF (inactive); for `C#CCOCCOCCOCCNc1nc(N2CCN(C(=O)CCCCCCCCCCNC(=O)[C@H](CCCCN)n3cc(CCCC(=O)O)nn3)CC2)nc(N2CCN(C(=O)CCCCCCCCCCNC(=O)[C@H](CCCN=C(N)N)n3cc(C[C@@H](C)CC)nn3)CC2)n1`: 42.4 kMESF (inactive); for `Cc1nn(C)c(C)c1N1C(=O)c2cccc3c(Br)ccc(c23)C1=O`: 40.8 kMESF (inactive).

As for `O=C(/C=C/c1ccc(Br)cc1)NC(=S)NNC(=O)c1ccco1`, the GFP fluorescence (kMESF) was 36.3 kMESF (inactive).

In the case of `COc1ccc(/C=C/C(=O)NC(=S)NNC(=O)c2cnccn2)cc1`, the GFP fluorescence (kMESF) is 38.3 kMESF (inactive). The same measure for `CC[C@]1(c2ccccc2C)ON(c2ccccc2C(F)(F)F)C1=O`: 38.9 kMESF (inactive); for `COc1ccc(NC(=O)/C(C#N)=C/c2ncc([N+](=O)[O-])n2C)c(OC)c1`: 45.2 kMESF (inactive).

`Cc1ccc(/C=C2\SC(=S)N(Cc3ccccc3)C2=O)o1`: the GFP fluorescence (kMESF) was 38.4 kMESF (inactive). In the case of `Cc1sc(/C=C2\C(=O)ON=C2c2ccccc2)cc1Br`, the GFP fluorescence (kMESF) was 34 kMESF (inactive). The same measure for `O=C1c2sc3nc4ccccc4n3c2C(=O)N1c1ccccc1Cl`: 23.1 kMESF (inactive); for `CC1(c2ccccc2)ON(c2ccccc2C(F)(F)F)C1=O` (centres undefined): 29.4 kMESF (inactive). Turning to `CS(=O)(=O)N1N=C(c2ccccc2)CC1c1ccc2c(c1)OCO2` (centres undefined), the GFP fluorescence (kMESF) was 126 kMESF (inactive).

As for `O=C1ON=C(c2ccccc2)/C1=C\c1ccco1`, the GFP fluorescence (kMESF) is 42.7 kMESF (inactive). To `CC(=O)Nc1ncnc2c1c(-c1ccc(Cl)cc1)nn2C(C)(C)C` belongs 30.3 kMESF (inactive); to `COc1ccc(C(=O)/C=C2/C(=O)Nc3ccccc32)cc1`, 44.8 kMESF (inactive); to `CC(=O)N(\C=C/C=C/C=C1\Sc2ccccc2C1=O)c1ccccc1`, 38.7 kMESF (inactive). As to `COc1ccc(C(=O)/C=C2/C(=O)Nc3ccccc32)c(OC)c1`, the GFP fluorescence (kMESF) was 43.2 kMESF (inactive). The same measure for `O=C(O)c1ccc(COc2ccccc2C=C2C(=O)c3ccccc3C2=O)cc1`: 32.6 kMESF (inactive); for `Clc1cccc(CN2COc3c(cc(Cl)c4cccnc34)C2)c1`: 35.6 kMESF (inactive); for `Cc1ccc(C2=NOC(=O)/C2=C\c2ccc(C)o2)cc1`: 32.4 kMESF (inactive).

`COc1ccc(OCC(=O)NNC(=S)NC(=O)C2CCCCC2)cc1`: the GFP fluorescence (kMESF) is 35.6 kMESF (inactive). To `O=C1C(Cl)=C(Nc2ccccc2O)C(=O)N1CCc1ccccc1` belongs 39.3 kMESF (inactive). To `C#CCOCCOCCOCCNc1nc(N2CCN(C(=O)CCCCCCCCCCNC(=O)[C@H](CCCCN)n3cc(CCO)nn3)CC2)nc(N2CCN(C(=O)CCCCCCCCCCNC(=O)[C@H](CCCCN)n3cc(C[C@@H](C)CC)nn3)CC2)n1` belongs 51.4 kMESF (inactive); to `Cc1cccnc1Nc1nc(-c2ccccn2)cs1`, 31 kMESF (inactive). To `O=S(=O)(CCN(CCS(=O)(=O)C(F)(F)F)CC1CCCO1)C(F)(F)F` (centres undefined) belongs 35.8 kMESF (inactive); to `O=C(OCn1ncc(Br)c(Br)c1=O)c1ccc(F)cc1`, 43.7 kMESF (inactive); to `N/C(Cc1ccc(Cl)cc1Cl)=N\OC(=O)c1ccccc1`, 29.1 kMESF (inactive). In the case of `O=C(COc1ccc(F)cc1Cl)Nc1nc(-c2ccccn2)cs1`, the GFP fluorescence (kMESF) is 33.9 kMESF (inactive).

Take `COc1cc(C=C2C(=O)c3ccccc3C2=O)cc(OC)c1OC`: the GFP fluorescence (kMESF) is 38.9 kMESF (inactive). As for `O=[N+]([O-])c1ccc(-c2cn3nc(-c4ccccc4)c(-c4ccccc4)nc3n2)cc1`, the GFP fluorescence (kMESF) is 39.6 kMESF (inactive). To `CCC(=O)Oc1oc(-c2ccccc2)nc1C=Nc1ccccc1OC` belongs 42.9 kMESF (inactive); to `Oc1c(CN2CCN(c3ccccc3)CC2)cc(Br)c2cccnc12`, 39 kMESF (inactive); to `Cc1cc(O)c(C(=O)/C=C/c2ccc(Cl)cc2)c(=O)o1`, 40.1 kMESF (inactive).

As to `O=C(NC(=S)Nc1ccc2oc(=O)ccc2c1)c1cccc(Cl)c1`, the GFP fluorescence (kMESF) is 29.8 kMESF (inactive).

Take `COc1ccccc1NC1=C(Cl)C(=O)N(c2ccccc2)C1=O`: the GFP fluorescence (kMESF) was 33 kMESF (inactive).

Regarding `COc1cc(C=C2C(=O)c3ccccc3C2=O)cc(OC)c1`, the GFP fluorescence (kMESF) is 38 kMESF (inactive). The same measure for `O=C1c2cccc3c([N+](=O)[O-])ccc(c23)C(=O)N1O`: 40.9 kMESF (inactive); for `Cc1c(NC2=C(Cl)C(=O)N(c3ccccc3Cl)C2=O)c(=O)n(-c2ccccc2)n1C`: 38.1 kMESF (inactive); for `CCCCC(=O)NNC(=S)NC(=O)c1ccc(C)cc1`: 58.2 kMESF (inactive).

Take `Cc1ccc(/C=C2/C(=O)ON=C2c2ccccc2)o1`: the GFP fluorescence (kMESF) is 40.1 kMESF (inactive). To `COc1ccccc1N=Cc1nc(-c2ccccc2)oc1OC(C)=O` belongs 35.1 kMESF (inactive); to `O=C1NC(=O)N(Cc2ccc(F)cc2)C(=O)/C1=C/c1cccs1`, 28.1 kMESF (inactive). The same measure for `CCOC(=O)Cn1cc(/C=C/[N+](=O)[O-])c2ccccc21`: 43.7 kMESF (inactive); for `COc1cc(NC(=O)c2ccccc2[N+](=O)[O-])ccc1NC(=O)c1cc2ccccc2o1`: 44.3 kMESF (inactive). The same measure for `O=[N+]([O-])c1cc(CN2CCN(c3ccccc3)CC2)c(O)c2ncccc12`: 27 kMESF (inactive); for `Cc1[nH]c(-c2ccccn2)nc(=S)c1Cl`: 51 kMESF (inactive). As for `O=c1[nH]c(-c2ccc(Cl)cc2)cs1`, the GFP fluorescence (kMESF) was 39.4 kMESF (inactive).

As to `Cc1ccccc1[C@@]1(C)ON(c2ccccc2C(F)(F)F)C1=O`, the GFP fluorescence (kMESF) was 29.8 kMESF (inactive).

For the compound `O=C(Nc1cccc(C(F)(F)F)c1)Oc1ccc(Cl)c2cccnc12`, the GFP fluorescence (kMESF) is 31.6 kMESF (inactive). The same measure for `O=C(/C=C/c1ccccn1)c1cc(Br)ccc1O`: 37.3 kMESF (inactive); for `Cc1ccc(S(=O)(=O)N2CC(C(=O)O)=CC[C@H]2c2ccc(Cl)cc2)cc1`: 39.2 kMESF (inactive); for `Oc1c(I)cc(Cl)c2cccnc12`: 25 kMESF (inactive). To `CC(=O)SC(C[N+](=O)[O-])c1cn(C(C)=O)c2ccccc12` (centres undefined) belongs 36.3 kMESF (inactive).

Consider `CC(Oc1ccc2ccccc2c1)C(=O)NNC(=S)NC(=O)c1ccco1` (centres undefined), for which the GFP fluorescence (kMESF) is 32.1 kMESF (inactive). To `O=C(/C=C/c1ccccc1)NC(=S)NNC(=O)Cc1cccs1` belongs 41.4 kMESF (inactive); to `Cc1cc(=O)oc2cc(Oc3ccc([N+](=O)[O-])cc3C(F)(F)F)ccc12`, 42.1 kMESF (inactive); to `c1ccc(-c2csc(Nc3cccnc3)n2)nc1`, 32.1 kMESF (inactive). To `O=c1/c(=C/c2cccc3ccccc23)sc2ncnn12` belongs 36.7 kMESF (inactive); to `CC(=O)Oc1ccc(N2C(=O)C3C4C=CC(O4)C3C2=O)cc1` (centres undefined), 45.2 kMESF (inactive).

For the origin of these results see PubChem BioAssay AID2743 (NMMLSC, 2010).
